What is called IC50 is the concentration needed to halve the response being measured. Read a high IC50 as weaker potency in that assay.

The record followed here is patent US9682966B2, “Kappa opioid ligands” (The Scripps Research Institute, priority 2012, dated 2017).

In the assay the target is kappa opioid receptor (OPRK1) (Homo sapiens (Human), UniProt P41145). Kind of assay: OPRK1 antagonist assay (b-arrestin-2-TEV / b-lactamase reporter, EC80 U-50488 challenge). In kind it is cell-based. The conditions noted are these: for IC50: OPRK1 antagonist assay vs EC80 U-50488.
Chain of kappa opioid receptor (OPRK1) (P41145 whole entry): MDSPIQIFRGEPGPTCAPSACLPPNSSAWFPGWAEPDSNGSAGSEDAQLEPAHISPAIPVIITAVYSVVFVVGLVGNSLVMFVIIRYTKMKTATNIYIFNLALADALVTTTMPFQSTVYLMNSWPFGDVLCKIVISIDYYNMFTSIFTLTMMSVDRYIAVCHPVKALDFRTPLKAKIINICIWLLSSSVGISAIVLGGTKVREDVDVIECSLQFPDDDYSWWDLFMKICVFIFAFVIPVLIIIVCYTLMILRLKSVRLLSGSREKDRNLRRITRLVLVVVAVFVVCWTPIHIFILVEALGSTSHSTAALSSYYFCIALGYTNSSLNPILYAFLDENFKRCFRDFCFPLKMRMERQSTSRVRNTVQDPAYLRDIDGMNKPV

Turning to `COC1CN(c2nc3ccc(C)cc3cc2-c2noc(C)n2)CCC1NC1CCCCC1` (stereo not drawn) [compound 314], half-maximal inhibition (IC50) was put at 2 nM.
The same measure, in the same setting: to `Cc1ccc2nc(N3CCN(CC4CCCCC4)C(CO)C3)c(-c3nc(C)no3)cc2c1` (stereo not drawn) [C76] belongs greater than 10000 nM; to `Cc1cnc(N2CCC(NC3CCOCC3)CC2)c(-c2nc(C3CC3)no2)c1` [compound 396], 2260 nM.
The same measure, in the same setting: to `Cc1ccc2nc(N3CCC(N[C@H](C)C(C)C)CC3)c(-c3noc(C)n3)cc2c1` [compound 524] belongs 57 nM.
Still for that read-out and setting: to `COC(=O)c1cc(Br)cnc1N1CCC(NC2CCCCC2)(C(=O)OC)CC1` [C21] belongs greater than 10000 nM.
As for `Cc1ccc2nc(N3CCC(CNC4CCCCC4)CC3)c(-c3nc(C)no3)cc2c1` [C84], the IC50 was greater than 10000 nM.
The same measure, in the same setting: to `COC(=O)c1cnc(N2CC[C@@H](NC3CCCCC3)[C@H](O)C2)c(Br)c1` [compound 132] belongs 4000 nM; to `CO[C@H]1CN(c2ncc(C)cc2-n2ccc(C)n2)CC[C@H]1NC1CCCCC1` [compound 366], 19 nM; to `CCc1cnc(N2CCC(NC3CCCCC3)C(OC)C2)c(-c2nc(C)no2)c1` (stereo not drawn) [compound 379], 525 nM.
`Cc1nc(-c2cc3cc(F)ccc3nc2N2CCC(NC3CCCCC3)CC2)no1` [compound 489] displayed an IC50 of 616 nM.
Take `CO[C@H]1CN(c2ncc(C)cc2-c2nc(C)no2)CC[C@H]1N(C1CCCC1)C1CCCC1` [compound 339]: the IC50 turned out to be 29 nM.
Same read-out and setting: to `CO[C@H]1CN(c2nc3ccccc3nc2-c2nc(C)no2)CC[C@H]1NC1CCCCC1` [compound 333] belongs 6.6 nM; to `CO[C@@H]1CN(c2ncc(C)cc2-c2noc(C)n2)CC[C@@H]1NC1CCCCC1` [compound 399], 953 nM; to `Cc1ccc2nc(N3CCC(NC4CCCC[C@@H]4O)CC3)c(-c3ccc(C)nn3)cc2c1` (stereo partly drawn) [compound 443], 33 nM.
The same measure, in the same setting: to `COC(=O)c1cc(C#N)c(N2CCC(NC3CCCCC3)C(O)C2)nc1C` (stereo not drawn) [C57] belongs greater than 20000 nM; to `Cc1nc(-c2c(N3CCC(NC4CCOCC4)CC3)nc3ccccc3c2C)no1` [compound 447], 1150 nM; to `COC(=O)c1cc(Br)cnc1N1CCC(N2CCOCC2)CC1` [C5], greater than 10000 nM.
On the same count and under the same terms, to `Cc1cc(-c2noc(C)n2)c(N2CCC(NC3CCCCC3)CC2)nn1` [compound 420] belongs 3 nM.
In the case of `COC1CN(c2ncc(C)cc2-c2cc(C)no2)CCC1NC1CCCCC1` (stereo not drawn) [compound 380], half-maximal inhibition (IC50) was put at 128 nM. Against the preceding molecule, the IC50 is about 43-fold higher.
`Cc1ccc2nc(N3CCC(NCC(C)C)CC3)c(-c3ccc(C)nn3)cc2c1` [compound 442] registered an IC50 of 324 nM.
The same measure, in the same setting: to `COC(=O)c1cc(Br)cnc1N1CCC(N[C@@H]2CCCCC[C@@H]2O)CC1` [C9] belongs greater than 10000 nM.
Still for that read-out and setting: to `CC(=O)c1cc(C2CC2)cnc1N1CCC(NC2CCCCC2)C(CO)C1` (stereo not drawn) [C63] belongs greater than 10000 nM; to `CCOC(=O)c1c(C(F)(F)F)ccnc1N1CCC(NC2CCCCC2)CC1` [C26], greater than 10000 nM.
Still for that read-out and setting: to `COC(=O)c1cc(NC(=O)CN)cnc1N1CCC(NC2CCCCC2)CC1` [C41] belongs greater than 10000 nM.
Take `COC(=O)c1cc(Br)cnc1N1CCC(OC2CCCCC2O)CC1` (stereo not drawn) [C50]: the IC50 was greater than 10000 nM.
Consider `Cc1ccc2nc(N3CCC(NC4CCCC4)CC3)c(-c3noc(C)n3)cc2c1` [compound 414], for which inhibition was half-maximal at 9 nM (IC50). In other words, the single-digit nanomolar range.
As to `CN(C)C(=O)c1cc(Br)cnc1N1CCC(NC2CCCCC2)CC1` [C19], the IC50 is greater than 10000 nM.
On the same count and under the same terms, to `O=Cc1cc(Br)cnc1N1CCC(NC2CCCCC2)CC1` [C45] belongs greater than 10000 nM; to `Cc1ccc2nc(N3CCC(NC[C@@H](C)O)CC3)c(-c3noc(C)n3)cc2c1` [compound 423], 191 nM; to `COC(=O)c1cc(C2CC2)cnc1N1CCC(NC2CCCCC2)CC1` [C15], greater than 10000 nM.
On to `CC(=O)c1cc(C2CC2)cnc1N1CC[C@@H](NC2CCCCC2)[C@H](O)C1` [C62], for which the IC50 was greater than 10000 nM.
Still for that read-out and setting: to `CC(=O)c1cc(-c2ccccc2)cnc1N1CC[C@@H](NC2CCCCC2)[C@H](O)C1` [C65] belongs greater than 10000 nM.
For `COC(=O)c1cc(Br)cnc1N1CCC(NCCO)CC1` [compound 6], the “% inhib if other than 50%” value (% inhibition to which the printed IC50 value refers, if other than 50%) is on record as 80%.
Molecule `Cc1cc(Cl)nc(N2CCC(N[C@@H]3CCCC[C@H]3O)CC2)c1C#N` [C11] gave an IC50 greater than 10000 nM.
`CO[C@@H]1CN(c2nc3ccccc3cc2-c2nc(C)no2)CC[C@@H]1NC1CCCCC1` [compound 329] returned an IC50 of 12.2 nM.
Still for that read-out and setting: to `CO[C@@H]1CN(c2nc(C)c(C)cc2-c2nc(C)no2)CC[C@@H]1NC1CCCCC1` [compound 342] belongs 48 nM.
The same measure, in the same setting: to `Cc1ccc(-c2nc(C)no2)c(N2CCC(NC3CCCCC3)C(CO)C2)n1` (stereo not drawn) [compound 386] belongs 31 nM.
`COC(=O)c1cc(Br)cnc1N1CCC(NCc2ccccc2O)CC1` [C22] yielded an IC50 greater than 10000 nM.
Same read-out and setting: to `Cc1ccc2nc(N3CCC(NC(C)CC(C)C)CC3)c(-c3nc(C)no3)cc2c1` (stereo not drawn) [C72] belongs greater than 10000 nM.
The molecule `Cc1ccc2nc(N3CCC(NC4CCCC4)CC3)c(-c3nc(C)no3)cc2c1` [compound 369] displayed an IC50 of 2 nM.
The molecule `CO[C@H]1CN(c2ncc(C)cc2-c2noc(C)n2)CC[C@H]1NC1CCCCC1` [compound 395] gave an IC50 of 49 nM.
On the same count and under the same terms, to `COC(=O)c1cc(NC(=O)c2cc(C)on2)cnc1N1CCC(NC2CCCCC2)CC1` [C34] belongs greater than 10000 nM; to `FC(F)(F)c1cc(Br)cnc1N1CCC(NC2CCCCC2)CC1` [C25], greater than 10000 nM.
The same measure, in the same setting: to `Cc1nc(-c2c(N3CCC(NCC(C)C)CC3)nc3ccccc3c2C)no1` [compound 448] belongs 226 nM; to `COC(=O)c1cc(Br)cnc1N1CCC(CN)CC1` [C16], greater than 10000 nM; to `O=Cc1cc(Br)cnc1N1CCC(NC2CCCCC2)C(CO)C1` (stereo not drawn) [C46], greater than 10000 nM.
Still for that read-out and setting: to `Cc1ccc2nc(N3CCC(NC4CCOC4)CC3)c(-c3noc(C)n3)cc2c1` (stereo not drawn) [compound 432] belongs 22 nM; to `Cc1ccc2nc(N3CCC(NC4(C)CCOCC4)CC3)c(-c3noc(C)n3)cc2c1` [compound 417], 105 nM; to `CO[C@@H]1CN(c2nc(C)ccc2-c2ccc(C)nn2)CC[C@@H]1NC1CCCCC1` [compound 427], 4600 nM.
`Cc1noc(-c2cc3c(nc2N2CC[C@@H](NC4CCCCC4)[C@H](O)C2)CCCC3)n1` [compound 192] displayed an IC50 of 199 nM.
The same measure, in the same setting: to `Cc1ccc2nc(N3CCCC(NC4CCCCC4)CC3)c(-c3nc(C)no3)cc2c1` (stereo not drawn) [C80] belongs greater than 10000 nM; to `Cc1cnc(N2CCC(NC3CCCCC3)CC2)c(-c2nc(C)no2)c1` [compound 388], 20 nM; to `Cc1cc(-c2noc(C)n2)c(N2CCC(NC3CCCC[C@@H]3O)CC2)nn1` (stereo partly drawn) [compound 452], 47 nM.
Still for that read-out and setting: to `COC1CN(c2ncc(C)cc2-n2ccc(C)n2)CCC1NC1CCCCC1` (stereo not drawn) [compound 358] belongs 9 nM.
`O=C(O)c1cc(Br)cnc1N1CCC(NC2CCCCC2)CC1` [C29] came in with an IC50 greater than 10000 nM.
On the same count and under the same terms, to `COCCOC(=O)c1cc(Br)cnc1N1CCC(NC2CCCCC2)CC1` [C31] belongs greater than 10000 nM; to `Cc1cnc(N2CCC(NCC(C)C)CC2)c(-c2cc(C)no2)c1` [compound 381], 860 nM.
`CCC(CC)NC1CCN(c2nc3ccccc3c(C)c2-c2noc(C)n2)CC1` [compound 449] returned an IC50 of 129 nM. This IC50 is about 6.7-fold lower than that of the molecule before.
Still for that read-out and setting: to `COC(=O)c1cnc(N2CCC(NC3CCCCC3)CC2)c(N)c1` [C38] belongs greater than 10000 nM.
The same measure, in the same setting: to `Cc1ccc2nc(N3CCC(NC4CCCCCC4)CC3)c(-c3noc(C)n3)cc2c1` [compound 415] belongs 3 nM; to `Cc1ccc2nc(N3CCC(NC4CCOC4)CC3)c(-c3ccc(C)nn3)cc2c1` (stereo not drawn) [compound 458], 440 nM; to `Cc1ccc2nc(N3CCC(NCC(C)C)CC3)c(-c3noc(C)n3)cc2c1` [compound 413], 22 nM.
In turn, `Cc1ccc2nc(N3CCC(NC(=O)C4CCCCC4)CC3)c(-c3nc(C)no3)cc2c1` [C77] showed an IC50 greater than 10000 nM.
On the same count and under the same terms, to `O[C@@H]1CCCC[C@H]1NC1CCN(c2ccc(Cl)cn2)CC1` [C12] belongs greater than 10000 nM; to `CO[C@H]1CN(c2nc3ccc(C)cc3cc2-c2ccc(C)nn2)CC[C@H]1NC1CCCCC1` [compound 439], 231 nM; to `CCC(CC)NC1CCN(c2nc3ccc(C)cc3cc2-c2noc(C)n2)CC1` [compound 416], 4 nM.
Still for that read-out and setting: to `Cc1cc(-c2noc(C)n2)c(N2CCC(NCC(C)C)CC2)nn1` [compound 431] belongs 22 nM; to `Cc1cnc(N2CCC(NCC(C)C)CC2)c(-c2nc(C3CC3)no2)c1` [compound 397], 1280 nM; to `Cc1ccc2nc(N3CCC(NC4CCC4)CC3)c(-c3nc(C)no3)cc2c1` [compound 370], 37 nM.
Consider `COC(=O)c1cc(Br)cnc1N1CCC(NCc2ccccc2OC)CC1` [C23], for which the IC50 was greater than 10000 nM.
Consider `O=C(c1ccccc1)N1CCC(N[C@@H]2CCCC[C@H]2O)CC1` [C10], for which the IC50 is greater than 10000 nM.
For the molecule `CCC(CC)NC1CCN(c2nc3ccc(F)cc3cc2-c2noc(C)n2)CC1` [compound 490], the IC50 was determined as 248 nM.
The same measure, in the same setting: to `O=Cc1cc(Br)cnc1N1CCC(NC2CCCCC2)C(O)C1` (stereo not drawn) [C47] belongs greater than 10000 nM; to `COC(=O)c1cc(C2=CCCCC2)cnc1N1CCC(NC2CCCCC2)CC1` [C17], greater than 10000 nM.
The same measure, in the same setting: to `COC(=O)c1cc(Br)cnc1N1CCC(N2CCN(C)CC2)CC1` [C8] belongs greater than 10000 nM.
Consider `Cc1ccc2nc(N3CCC(NC4CCCC4)CC3)c(-c3ccc(C)nn3)cc2c1` [compound 445], for which half-maximal inhibition (IC50) was put at 55 nM.
Same read-out and setting: to `CO[C@H]1CN(c2nc(C)ccc2-c2noc(C)n2)CC[C@H]1NC1CCCCC1` [compound 429] belongs 214 nM; to `Cc1ccc2nc(N3CCC(NC4CCC[C@@H]4O)CC3)c(-c3nc(C)no3)cc2c1` (stereo partly drawn) [compound 372], 15 nM; to `COC(=O)c1cc(Br)cnc1N1CCC(N(C(C)=O)C2CCCCC2)C(OC(C)=O)C1` (stereo not drawn) [C48], greater than 10000 nM.
`CO/N=C/c1cc2cc(C)ccc2nc1N1CCC(NC2CCCCC2)CC1` [compound 459] registered an IC50 of 15 nM.
`COC1CN(c2ncc(C)cc2-n2cc(C)cn2)CCC1NC1CCCCC1` (stereo not drawn) [C92] had an IC50 of 58000 nM.
